The record followed here is patent US10000469B2, “Heat shock protein 70 (hsp-70) receptor ligands” (Duke University, priority 2014, dated 2018).

The nature of series [1]: HS-72 PK in plasma, kidney and liver. The class given is in vivo, mice. As for the experimental part:
HS-72 PK: Wild-type mice were injected IP with HS-72 and sacrificed 5 minutes, 1 hour, 4 hours, 8 hours, and 24 hours post injection. Untreated animals were included as control and called 0 minutes. Each time point consisted of 3 animals. At the indicated time points liver, kidney, and blood was harvested from each animal. Whole blood was centrifuged and only the plasma was retained. Whole liver and kidneys were frozen and stored at −80° C. until processing. Before quantifying HS-72 in the plasma and tissue a standard curve was made using HS-72 and N-(1-methyl-1H-benzo[d]imidazol-2-yl)-1-(pyrazin-2-yl)piperidine-3-carboxamide (“HS-156”), as the internal standard. HS-72 and HS-156 were diluted in water and were further diluted 1:4 in acetonitrile. The resulting solution was then filtered through a 0.2 μm PTFE membrane (VWR, Radnor, Pa.). 15 uL of the solution was run through an Eclipse Plus C18 column (Agilent, Santa Clara, Calif.) and analyzed by an Agilent Ion Trap 6130 LC-MS (Agilent, Santa Clara, Calif.). The total ion chromatogram (TIC), extracted ion chromatogram (EIC), UV chromatogram, and mass spectra (MS) were obtained for each run. The area under the curve from the EIC for HS-72 at 364-366 and for HS-156 at 337 was determined. The EIC area ratio for HS-72 compared to HS-156 was calculated and this ratio was used to plot a standard curve based on the known concentrations of HS-72. The plasma samples were processed in the same manner as in the standard curve and analyzed by LC-MS. The resulting EIC ratios from HS-72 compared to HS-156 were then determined, which was used to calculate the concentration of HS-72 in the diluted sample. The concentration in solution of HS-72 was adjusted for the 1:4 dilution that occurs during sample preparation. The final concentration of HS-72 in plasma was calculated per mL of plasma. The liver and kidney samples were weighed and homogenized in tissue lysis buffer. The resulting homogenate was then processed in the same manner as the plasma samples. The resulting EIC ratios from HS-72 compared to HS-156 were then determined, which was used to calculate the concentration of HS-72 in the diluted sample. The concentration in solution of HS-72 was adjusted for the 1:4 dilution that occurs during sample preparation. Final concentration of HS-72 in the kidney and liver was calculated per gram of tissue using the weight of each tissue measured before sample processing.

The next series deals with Her2 and Akt. As to the kind of experiment: Degradation assay (Western blot of client proteins). It is filed as cell-based. How it is done: Western Blotting: SDS-PAGE was carried out using Criterion™ Cell system using pre-casted 4-20% or 4-15% Criterion™ Tris-HCl gels (BioRad, Hercules, Calif.). For Western blotting gels were run at 200V for 1 hour using the PowerPac basic power supply (BioRad, Hercules, Calif.). Next, gels were transferred to nitrocellulose for blotting at 100V for 1 hour (Fisher Scientific, Waltham, Mass.). Nitrocellulose membranes were blocked with 5% dry non-fat milk in phosphate-buffered saline (PBS) with 0.01% Tween-20 for 1 hour at room temperature. Membranes were incubated with primary antibodies (1:1000 dilution) overnight at 4° C. The next day membranes were washed 3× in PBS-Tween, incubated for 1 hour at room temperature with secondary antibodies, and further washed 3× in PBS-Tween. ECL Plus Western blotting reagent (Pierce Biotechnology, Rockford, Ill.) was used to detect antibodies. GFP, Her2, Akt, Hsp70, Hsc70, Grp78, Grp75, and Hsp90 primary antibodies and all associated secondary antibodies were purchased from Cell Signaling Technology (Danvers, Mass.).
Degradation Assay: The specified cells were seeded overnight and then treated with the indicated concentration of compound for 24 hours. The cells were then harvested and subjected to analysis by Western blot.

Setting [2] is: 24 hours, IP 20 mg/Kg, n=3, SEM.
Where [3] appears, read: HS-72 in combination with HS-10.

Bounds are passed on as bounds.

In turn, `CCCn1c(NC(=O)[C@H]2CCCN(c3cnccn3)C2)nc2ccccc21` [HS-72, (S)—N-(1-propyl-1H-benzo[d]imidazol-2-yl)-1-(pyrazin-2-yl)piperidine-3-carboxamide] returned a plasma concentration in series [1] (5 minutes post IP injection, 20 mg/Kg, n=3, SEM) of 70 ± 30 µM. In series [1] (5 minutes, IP 20 mg/Kg, n=3, SEM), this molecule displayed a kidney concentration of 0.43 ± 0.08 µmol/g. In addition, the plasma concentration in series [1] (8 hours post IP injection, 20 mg/Kg, n=3, SEM) turned out to be 2 ± 0.2 µM. Moreover, the liver concentration (peak) in series [1] (8 hours, IP 20 mg/Kg, n=3, SEM) is 2.26 ± 0.5 µmol/g. Further, in series [1] (setting [2]), the kidney concentration is 0.02 ± 0.004 µmol/g and the liver concentration was determined as 0.51 ± 0.11 µmol/g. Also, in series [1] (for at least 8 hours), the “plasma [HS-72] maintained” value was > 20 µM. For the same molecule, the concentration at 24 hours in series [1] (mouse, plasma, 24 hours post IP injection, 20 mg/Kg, read-out: plasma concentration, trace amounts) is < 10 µM. Moreover, the half-life in series [1] (mouse, plasma, IP 20 mg/Kg, n=3, SEM, read-out: T1/2 elimination from plasma (converted)) was 24 ± 6 min. In addition, the “metabolism in plasma, kidney and liver” value in series [1] (parent MS ion of 365.2 Da detected intact) is given as “no evidence of rapid metabolism”. In addition, in the series on Her2 and Akt (setting [3]), the Akt degradation result is given as “significant Akt degradation” and the “levels of Her2” value was “completely abolished”. Further, the “Akt and Her2 expression” value in the series on Her2 and Akt (compound alone, BT474 breast cancer cells) is given as “dose dependent reduction”.
